US9150566B2, “2-(1,2,3-triazol-2-yl)benzamide and 3-(1,2,3-triazol-2-YL)picolinamide derivatives as orexin receptor antagonists” (ACTELION PHARMACEUTICALS LTD., priority 2011, dated 2015)

Key:
human orexin-2 receptor = human orexin-2 receptor (Homo sapiens (Human), UniProt O43614); assay: In vitro intracellular calcium measurements (FLIPR), antagonistic activity on orexin-2 receptor; type: cell-based; conditions: CHO cells expressing human orexin-2 receptor; FLIPR; 3 nM orexin-A agonist; 120 min antagonist incubation; geometric mean if determined several times; read-out: IC50 OX2
Chain of human orexin-2 receptor (O43614 whole entry): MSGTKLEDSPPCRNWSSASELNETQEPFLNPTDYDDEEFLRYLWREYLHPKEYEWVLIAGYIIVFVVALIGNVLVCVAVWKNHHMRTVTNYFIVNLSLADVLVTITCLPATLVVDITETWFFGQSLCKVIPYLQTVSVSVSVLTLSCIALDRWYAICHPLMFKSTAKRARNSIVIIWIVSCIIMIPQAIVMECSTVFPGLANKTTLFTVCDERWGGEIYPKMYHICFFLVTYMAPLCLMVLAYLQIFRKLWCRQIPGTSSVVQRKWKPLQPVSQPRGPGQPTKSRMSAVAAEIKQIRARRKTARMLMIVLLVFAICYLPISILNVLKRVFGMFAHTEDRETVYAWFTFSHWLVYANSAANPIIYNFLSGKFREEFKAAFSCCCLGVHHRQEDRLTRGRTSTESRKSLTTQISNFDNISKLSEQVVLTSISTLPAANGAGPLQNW
Experimental: (§1) In Vitro Assay: Intracellular Calcium Measurements:
(§2) Chinese hamster ovary (CHO) cells expressing the human orexin-1 receptor and the human orexin-2 receptor, respectively, are grown in culture medium (Ham F-12 with L-Glutamine) containing 300 μg/mL G418, 100 U/mL penicillin, 100 μg/mL streptomycin and 10% heat inactivated fetal calf serum (FCS). The cells are seeded at 20′000 cells/well into 384-well black clear bottom sterile plates (Greiner). The seeded plates are incubated overnight at 37° C. in 5% CO2.
(§3) Within the Fluorescent Imaging Plate Reader (FLIPR Tetra, Molecular Devices), antagonists are added to the plate in a volume of 10 μL/well, incubated for 120 min and finally 10 μL/well of agonist is added. Fluorescence is measured for each well at 1 second intervals, and the height of each fluorescence peak is compared to the height of the fluorescence peak induced by 3 nM orexin-A with vehicle in place of antagonist. […] Optimized conditions were achieved by adjustment of pipetting speed and cell splitting regime. The calculated IC50 values may fluctuate depending on the daily cellular assay performance. Fluctuations of this kind are known to those skilled in the art.

human orexin-1 receptor = human orexin-1 receptor (Homo sapiens (Human), UniProt O43613); assay: In vitro intracellular calcium measurements (FLIPR), antagonistic activity on orexin-1 receptor; type: cell-based; conditions: CHO cells expressing human orexin-1 receptor; FLIPR; 3 nM orexin-A agonist; 120 min antagonist incubation; geometric mean if determined several times; read-out: IC50 OX1
Chain of human orexin-1 receptor (O43613 whole entry): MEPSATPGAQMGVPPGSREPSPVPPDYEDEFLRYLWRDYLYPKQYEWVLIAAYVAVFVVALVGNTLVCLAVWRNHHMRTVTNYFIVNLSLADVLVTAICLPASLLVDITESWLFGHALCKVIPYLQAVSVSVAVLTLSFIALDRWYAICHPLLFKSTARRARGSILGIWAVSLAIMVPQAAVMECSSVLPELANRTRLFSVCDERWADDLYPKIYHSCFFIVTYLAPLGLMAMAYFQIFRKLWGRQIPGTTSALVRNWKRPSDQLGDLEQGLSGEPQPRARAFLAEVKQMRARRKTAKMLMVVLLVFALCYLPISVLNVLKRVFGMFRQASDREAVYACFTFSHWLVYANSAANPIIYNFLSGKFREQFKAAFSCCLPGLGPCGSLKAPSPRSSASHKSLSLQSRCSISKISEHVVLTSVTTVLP
Experimental: as §1, §2, §3

Row | SMILES | IC50 (human orexin-2 receptor) [nM] | IC50 (human orexin-1 receptor) [nM]
1 | Cc1ccc(-n2nccn2)c(C(=O)N2CCO[C@@H](C)[C@H]2Cc2cccc(-n3nccn3)c2)c1 (single isomer, unassigned) [Example 162, [(2S,3R)-2-Methyl-3-(3-[1,2,3]triazol-2-yl-benzyl)-morpholin-4-yl]-(5-methyl-2-[1,2,3]triazol-2-yl-phenyl)-methanone or [(2R,3R)-2-Methyl-3-(3-[1,2,3]triazol-2-yl-benzyl)-morpholin-4-yl]-(5-methyl-2-[1,2,3]triazol-2-yl-phenyl)-methanone] | 2530 | 24
2 | Cc1cccc(C(=O)N2CCO[C@@H](C)[C@H]2Cc2cccc(-n3nccn3)c2)c1-n1nccn1 (single isomer, unassigned) [Example 164, [(2S,3R)-2-Methyl-3-(3-[1,2,3]triazol-2-yl-benzyl)-morpholin-4-yl]-(3-methyl-2-[1,2,3]triazol-2-yl-phenyl)-methanone or [(2R,3R)-2-Methyl-3-(3-[1,2,3]triazol-2-yl-benzyl)-morpholin-4-yl]-(3-methyl-2-[1,2,3]triazol-2-yl-phenyl)-methanone] | 4040 | 29
3 | Cc1ccc(-n2nccn2)c(C(=O)N2CCO[C@H](C)[C@H]2Cc2cccc(-n3nccn3)c2)c1 (single isomer, unassigned) [Example 167, [(2R,3R)-2-Methyl-3-(3-[1,2,3]triazol-2-yl-benzyl)-morpholin-4-yl]-(5-methyl-2-[1,2,3]triazol-2-yl-phenyl)-methanone or [(2S,3R)-2-Methyl-3-(3-[1,2,3]triazol-2-yl-benzyl)-morpholin-4-yl]-(5-methyl-2-[1,2,3]triazol-2-yl-phenyl)-methanone] | 2380 | 19
4 | O=C(c1ccccc1-n1nccn1)N1CCOC[C@@H]1Cc1cccc(-n2nccn2)c1 [Example 13, [(S)-3-(3-[1,2,3]Triazol-2-yl-benzyl)-morpholin-4-yl]-(2-[1,2,3]triazol-2-yl-phenyl)-methanone] | 4440 | 966
5 | Cc1ccc(-n2nccn2)c(C(=O)N2CCOC[C@H]2Cc2cccc(-c3cccnc3)c2)c1 [Example 25, (5-Methyl-2-[1,2,3]triazol-2-yl-phenyl)-[(R)-3-(3-pyridin-3-yl-benzyl)-morpholin-4-yl]-methanone] | 1400 | 11

Stronger by IC50 (human orexin-2 receptor), values ahead:

Row | IC50 (human orexin-2 receptor) [nM] | IC50 (human orexin-1 receptor) [nM] | SMILES
6 | 31 | 0.5 | COc1ccc(C[C@@H]2COCCN2C(=O)c2ccccc2-n2nccn2)cc1-c1cccs1 [Example 10, [(R)-3-(4-Methoxy-3-thiophen-2-yl-benzyl)-morpholin-4-yl]-(2-[1,2,3]triazol-2-yl-phenyl)-methanone]
7 | 131 | 1 | Cc1ccc(-n2nccn2)c(C(=O)N2CCOC[C@H]2Cc2cccc(-n3cccc3)c2)c1 [Example 38, (5-Methyl-2-[1,2,3]triazol-2-yl-phenyl)-[(R)-3-(3-pyrrol-1-yl-benzyl)-morpholin-4-yl]-methanone]
8 | 762 | 34 | Cc1ccnc(-c2cccc(C[C@@H]3COCCN3C(=O)c3ccccc3-n3nccn3)c2)n1 [Example 40, {(R)-3-[3-(4-Methyl-pyrimidin-2-yl)-benzyl]-morpholin-4-yl}-(2-[1,2,3]triazol-2-yl-phenyl)-methanone]
9 | 1040 | 8 | Cc1ccc(-n2nccn2)c(C(=O)N2CCOC[C@H]2Cc2cccc(-c3cnccn3)c2)c1 [Example 41, (5-Methyl-2-[1,2,3]triazol-2-yl-phenyl)-[(R)-3-(3-pyrazin-2-yl-benzyl)-morpholin-4-yl]-methanone]
10 | 119 | 0.1 | Cc1ccc(-n2nccn2)c(C(=O)N2CCOC[C@H]2Cc2cccc(-c3cccs3)c2)c1 [Example 45, (5-Methyl-2-[1,2,3]triazol-2-yl-phenyl)-[(R)-3-(3-thiophen-2-yl-benzyl)-morpholin-4-yl]-methanone]
11 | 163 | 0.5 | O=C(c1ccccc1-n1nccn1)N1CCOC[C@H]1Cc1cccc(-c2cccs2)c1 [Example 46, [(R)-3-(3-Thiophen-2-yl-benzyl)-morpholin-4-yl]-(2-[1,2,3]triazol-2-yl-phenyl)-methanone]
